Test results from patent US20200138921A1, “METHODS OF PREVENTING AND TREATING DISEASES CHARACTERIZED BY SYNAPTIC DYSFUNCTION AND NEURODEGENERATION INCLUDING ALZHEIMER'S DISEASE” (The Trustees of Columbia University in the City of New York, priority 2017, published 2020).

Legend:
Assay type in all cases: cell-based, rat
Ube3A [1] = assay: Immunoprecipitation of HA-Ube3A and phospho-tyrosine immunoblot in B35 cells; conditions: B35 cells pre-treated with STI-571 for 1 hour prior to oAβ
Protocol: (§1) Hippocampal neuron cultures from both male and female rat embryos (E17-18) were prepared following a slightly modified version of the method of Brewer et al. 1996. Hippocampal neurons were kept in culture at 37° C. with 5% CO2 in Neurobasal medium (ThermoFisher) with B27 (ThermoFisher) supplement and Glutamax (ThermoFisher) and plated at a density of 2.5×10^5 cell/ml on dishes coated with poly-D-lysine (ThermoFisher). For the experiments, neurons were used after 14-21 days in vitro (DIV). Rat neuroblastoma B35 cells were cultured and maintained in DMEM (ThermoFisher) supplemented with 10% fetal bovine serum (FBS; Invitrogen) and Glutamax (ThermoFisher).
Cells were collected and homogenized with IP lysis buffer (ThermoFisher) supplemented with Halt protease and phosphatase inhibitor (ThermoFisher). Cell extracts were incubated overnight at 4° C. with 1.0 μg HA antibody (Cell Signaling) or mouse IgG (Cell Signaling) as a negative control Immunocomplexes were incubated with magnetic beads covalently coated with protein G (Invitrogen) on a rotator for 2 hours, at 4° C. The beads were then pelleted with a magnet and washed 3 times with 1× cell lysis buffer (Cell Signaling) supplemented with complete mini protease inhibitor mixture (Roche). The immunocomplexes were resuspended in cell lysis buffer, LDS-sample buffer (Invitrogen), […] dithiothreitol (DTT), and analyzed by Western blotting. […]

Ube3A [2] = assay: Ube3A protein degradation in B35 cells (cycloheximide chase); conditions: pre-treatment with STI
Protocol: FIG. 5A is a graph showing the quantification of Western blots of the levels of Ube3A and GAPDH (as house-keeping protein) of B35 cells treated with cycloheximide (CHX) or CHX and oAβ for 4, 8 and 16 hours. […] Graphs represent mean values and standard deviation. Significance determined by one-way ANOVA followed by Tukey Post Hoc multiple comparisons.

Ephexin-5 = assay: Western blot of Ephexin-5 in cultured primary hippocampal neurons; conditions: hippocampal neurons, Penetratin-1-linked siRNA for 24 hours
Protocol: as §1
Whole frozen mouse hippocampi, human brain specimens, and cultured cells were homogenized in RIPA buffer (ThermoFisher) supplemented with protease and phosphatase inhibitor cocktail (ThermoFisher), using a Teflon dounce homogenizer and centrifuged at 14,000 rpm for 10 minutes at 4° C. Supernatants were collected, normalized by BCA assay (ThermoFisher), and prepared for loading using sample buffer (SB) 4× (ThermoFisher) and dithiothreitol (DTT) 10× (ThermoFisher).
Cultured primary hippocampal neurons (14 DIV) were treated with 300 nM of a topoisomerase type I inhibitor, topotecan (TOP) or a vehicle control as described in Huang et al. 2012. Some cells were treated for 24 hours and some for 72 hours. All cells were harvested and whole cell lysates prepared for Western blot analysis of Ube3A and Ephixin-5.

RhoA-GTP = assay: Rho-GTPase activity pull-down assay in hippocampal neurons; conditions: siRNA 24 hours prior to oAβ for 8 hours
Protocol: Rho-GTPase pull-down assays were performed following the manufacturer's protocol (Cytoskeleton, Inc.). Briefly, cells were washed once with ice-cold PBS and lysed with RIPA/M-PER buffer (1:1; ThermoFisher). Lysates were incubated on ice for 5 minutes, and centrifuged (12,000 g) for 5 minutes. 30 μl was used for input and the remaining lysates were incubated with Rhotekin-RBD (RhoA) or PAK-RBD (Rac1) protein beads (25 μl) by rotating for 1 hour at 4° C. Beads were washed with ice-cold PBS (500 μl, 3×) and collected, and bound proteins were eluted with 1× sample buffer (30 μl). Input and eluted samples were then analyzed by gel electrophoresis and Western blotting using either a RhoA or Rac1-specific antibody.
To test whether increasing Ube3A could rescue the effects of oAβ, cultured primary hippocampal neurons (14 DIV) were pretreated with 300 nM of TOP or control PBS. At day 3 the cells were treated with oligomeric Aβ for 6 hours and whole cell lysates prepared for Western blot analysis of Ube3A protein levels and levels of active GTPase levels including RhoA-GTP, Rac1-GTP and Cdc42-GTP.

[3] = test system: primary hippocampal neurons; assay: Dendritic spine density in cultured hippocampal neurons (DiOlistic labeling); conditions: siRNA pre-treatment, oAβ 24 hours
Protocol: The protocol for diolistic labeling of neurons was adapted from Gan et al. 2000 and Gan et al. 2009. Briefly, 100 mg of tungsten particles (1.1 μm diameter; Bio-Rad) were thoroughly precipitated with 5.0 mg of lipophilic dye (DiI; ThermoFisher) and dissolved in 100 μl of methylene chloride. Dye-coated particles were shot 2-3 times into the cells using the Helios gene gun system (Bio-Rad) and left in 0.1 M PBS overnight to allow dye diffusion along neuronal processes. Cells were post-fixed with 4% paraformaldehyde (Pierce) for 1 hour to preserve staining, then mounted onto glass slides using Gel Mount (Biomeda) and stored at 4° C. in the dark.
Labeled neurons were imaged using the Laser Scanning Microscope (LSM) 510 Meta confocal microscope (Zeiss), equipped with 40×1.3 NA and 100×1.4 NA oil-immersion objectives. The NIH Image software program ImageJ was used the quantify diolistic-labeled cultured neurons. An average of 12 compressed images (20 μm thick) consisting of pyramidal neurons were quantified for each treatment. Spines were counted with NeuronStudio software in a blinded manner and spine density was represented in number of spine per μm dendritic length. Statistical analysis was performed using the statistics package GraphPad Prism.
To further test whether increasing Ube3A could rescue the effects of oAβ, cultured primary hippocampal neurons (14 DIV) were pretreated with 300 nM of TOP or control PBS. The neurons were then treated with oAβ for 24 hours, and whole cell lysates prepared for Western blot analysis, or fixed for microscopy.

## Cc1ccc(NC(=O)c2ccc(CN3CCN(C)CC3)cc2)cc1Nc1nccc(-c2cccnc2)n1 [STI-571]
Ube3A [1]
  Ube3A phosphorylation by oAβ: complete abolishment
Ube3A [2]
  oAβ-induced decrease in Ube3A protein: completely blocked

## Penetratin-1-linked siRNA: Ephexin-5 siRNA (SEQ ID NO: 1 and 2) cross-linked via a Cys-Cys bond to the delivery peptide Penetratin-1 (chain 1 GUCCUUUCUCCGUGUAUGUUU; chain 2 ACAUACACGGAGAAAGGACUU; Penetratin-1 peptide attached via Cys-Cys disulfide, further chemistry not given here)
Ephexin-5
  levels of Ephexin-5: depleted
RhoA-GTP
  oAβ-induced upregulation of RhoA activity: completely blocked
[3]
  loss of dendritic spine in neurons treated with oAβ: completely rescued
